Source: patent US20020082420A1, “Bicyclic heterocycles, pharmaceutical compositions containing them, their use, and processes for preparing them” (priority 2000, published 2002)

Legend:
[1] = target: T1, human EGF-R (Homo sapiens, UniProt P00533); experiment: Inhibition of EGF-dependent proliferation of F/L-HERc cells (Cell Titer 96 assay); type: cell-based; conditions: F/L-HERc cells (murine IL-3-dependent line expressing human EGF-R), stimulated with EGF 20 ng/ml, 48 hours at 37° C.
T1 construct: expressed in transfected cells; host or cells: F/L-HERc cells (murine IL-3-dependent FDC-P1 line transduced with an LXSN retroviral vector carrying human EGF-R cDNA; packaging line GP+E86)
Source text: A cell line of murine origin dependent on interleukin-3-(IL-3) which was genetically modified to express functional human EGF-R was used here. The proliferation of these cells known as F/L-HERc can therefore be stimulated either by murine IL-3 or by EGF (cf T. von Ruiden et al., EMBO J. 7, 2749-2756 (1988) and J. H. Pierce et al., Science 239, 628-631 (1988)).
The starting material used for the F/L-HERc cells was the cell line FDC-P1, the production of which has been described by T. M. Dexter et al., J. Exp. Med. 152. 1036-1047 (1980). Alternatively, however, other growth-factor-dependent cells may also be used (cf., e.g., J.H. Pierce et al., Science 239, 628-631 (1988); H. Shibuya et al., Cell 70, 57-67 (1992); and W. S. Alexander et al., EMBO J. 10, 3683-3691 (1991)). For expressing the human EGF-R cDNA (cf A. Ullrich et al., Nature 309, 418-425 (1984)) recombinant retroviruses were used as described by T. von Ruiden et al., EMBO J. 7, 2749-2756 (1988), except that the retroviral vector LXSN (cf A. D. Miller et al., BioTechniques 7, 980-990 (1989)) was used for the expression of the EGF-R cDNA and the line GP+E86 (cf D. Markowitz et al., J. Virol. 62, 1120-1124 (1988)) was used as the packaging cell.
The test was performed as follows:
F/L-HERc cells were cultivated in RPMI/1640 medium (BioWhittaker), supplemented with 10% fetal calf serum (FCS, Boehringer Mannheim), 2 mM glutamine (BioWhittaker), standard antibiotics and 20 ng/ml of human EGF (Promega), at 37° C. and 5% CO2. In order to investigate the inhibitory activity of the compounds according to the invention, 1.5×10^4 cells per well were cultivated in triplicate in 96-well plates in the above medium (200 μl), the cell proliferation being stimulated with either EGF (20 ng/ml) or murine IL-3. The IL-3 used was obtained from culture supernatants of the cell line X63/0 mIL-3 (cf H. Karasuyama et al., Eur. J. Immunol. 18, 97-104 (1988)). The compounds according to the invention were dissolved in 100% dimethylsulfoxide (DMSO) and added to the cultures in various dilutions, the maximum DMSO concentration being 1%. The cultures were incubated for 48 hours at 37° C.
In order to determine the inhibitory activity of the compounds according to the invention the relative cell number was measured in O.D. units using the Cell Titer 96™ Aqueous Non-Radioactive Cell Proliferation Assay (Promega). The relative cell number was calculated as a percentage of the control (F/LHERc cells without inhibitor) and the concentration of active substance which inhibits the proliferation of the cells by 50% (IC50) was derived therefrom.

T1 sequence (P00533 25-1210): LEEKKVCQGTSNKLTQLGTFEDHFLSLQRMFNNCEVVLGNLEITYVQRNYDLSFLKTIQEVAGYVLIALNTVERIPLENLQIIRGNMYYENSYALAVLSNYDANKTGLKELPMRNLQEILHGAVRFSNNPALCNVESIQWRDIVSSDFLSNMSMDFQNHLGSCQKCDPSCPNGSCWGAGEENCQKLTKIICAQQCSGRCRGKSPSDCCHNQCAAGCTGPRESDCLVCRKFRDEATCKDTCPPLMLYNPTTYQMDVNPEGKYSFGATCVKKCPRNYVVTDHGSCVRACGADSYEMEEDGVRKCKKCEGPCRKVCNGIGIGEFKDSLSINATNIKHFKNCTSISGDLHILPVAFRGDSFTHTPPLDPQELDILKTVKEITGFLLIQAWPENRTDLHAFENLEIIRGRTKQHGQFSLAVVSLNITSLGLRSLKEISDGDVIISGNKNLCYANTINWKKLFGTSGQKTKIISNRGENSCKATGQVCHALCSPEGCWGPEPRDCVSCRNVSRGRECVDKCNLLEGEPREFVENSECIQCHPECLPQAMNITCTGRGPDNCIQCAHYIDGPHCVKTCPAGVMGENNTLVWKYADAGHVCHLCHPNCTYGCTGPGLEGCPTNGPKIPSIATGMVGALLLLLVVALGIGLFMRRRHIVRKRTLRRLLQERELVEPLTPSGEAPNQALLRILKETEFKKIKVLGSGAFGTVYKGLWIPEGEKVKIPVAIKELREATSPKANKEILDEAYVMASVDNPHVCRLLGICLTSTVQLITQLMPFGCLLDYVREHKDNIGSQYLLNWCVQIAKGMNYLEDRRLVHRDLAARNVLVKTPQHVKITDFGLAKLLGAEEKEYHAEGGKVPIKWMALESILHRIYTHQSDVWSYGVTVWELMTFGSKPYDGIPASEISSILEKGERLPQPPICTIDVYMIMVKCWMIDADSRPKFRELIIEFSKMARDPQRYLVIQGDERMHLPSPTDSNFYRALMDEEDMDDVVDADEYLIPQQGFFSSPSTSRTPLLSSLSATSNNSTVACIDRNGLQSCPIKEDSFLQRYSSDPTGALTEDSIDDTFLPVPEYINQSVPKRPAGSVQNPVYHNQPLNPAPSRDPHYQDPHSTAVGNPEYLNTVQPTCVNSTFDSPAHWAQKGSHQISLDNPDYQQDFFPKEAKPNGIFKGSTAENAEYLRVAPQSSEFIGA

SMILES	IC50 [1] [nM]	melting point
CN(CC(=O)O)[C@H]1CC[C@H](Nc2ncc3ncnc(Nc4ccc(F)c(Cl)c4)c3n2)CC1 [1(3), 4-[(3-chloro-4-fluorophenyl)amino]-6-({trans-4-[N-(carboxymethyl)-N-methylamino]cyclohex-1-yl}amino)pyrimido[5,4-d]pyrimidine]	320	220 to 228 °C
O=C(O)CCN1CCC(N2CCN(c3ncc4ncnc(Nc5ccc(F)c(Cl)c5)c4n3)CC2)CC1 [1(8), 4-[(3-chloro-4-fluorophenyl)amino]-6-{4-[1-(2-carboxyethyl)piperidin-4-yl]piperazin-1-yl}pyrimido[5,4-d]pyrimidine]	1450	213 °C (dec.)
O=C(O)CN1CCC(CCNc2ncc3ncnc(Nc4ccc(F)c(Cl)c4)c3n2)CC1 [1(9), 4-[(3-chloro-4-fluorophenyl)amino]-6-{2-[1-(carboxymethyl)piperidin-4-yl]ethylamino}pyrimido[5,4-d]pyrimidine]	820	246 to 249 °C (dec.)
O=C(O)C1CCN(CCNc2ncc3ncnc(Nc4ccc(F)c(Cl)c4)c3n2)CC1 [1(10), 4-[(3-chloro-4-fluorophenyl)amino]-6-[2-(4-carboxypiperidin-1-yl)ethylamino]pyrimido [5,4-d]pyrimidine]	2510	190 °C (dec.)
CN(CCC(=O)O)C1CCN(c2ncc3ncnc(Nc4ccc(F)c(Cl)c4)c3n2)CC1 [1(11), 4-[(3-chloro-4-fluorophenyl)amino]-6-[4-[N-(2-carboxyethyl)-N-methylamino]piperidin-1-yl]pyrimido[5,4-d]pyrimidine]	2320	139 to 165 °C (dec.)
COC(=O)CN(C)[C@H]1CC[C@H](Nc2ncc3ncnc(Nc4ccc(F)c(Cl)c4)c3n2)CC1 [2(7), 4-[(3-chloro-4-fluorophenyl)amino]-6-[(trans-4-{N-[(methoxycarbonyl)methyl]-N-methylamino}cyclohex-1-yl)amino]pyrimido[5,4-d]pyrimidine]	60	131 to 134 °C
CCOC(=O)CN1CCN(c2ncc3ncnc(Nc4ccc(F)c(Cl)c4)c3n2)CC1 [2(10), 4-[(3-chloro-4-fluorophenyl)amino]-6-[4-[(ethoxycarbonyl)methyl]piperazin-1-yl]pyrimido[5,4-d]pyrimidine]	2040	179 to 182 °C
CCOC(=O)CCN1CCC(N2CCN(c3ncc4ncnc(Nc5ccc(F)c(Cl)c5)c4n3)CC2)CC1 [2(12), 4-[(3-chloro-4-fluorophenyl)amino]-6-(4-{1-[2-(ethoxycarbonyl)ethyl]piperidin-4-yl}piperazin-1-yl)pyrimido[5,4-d]pyrimidine]	810	–
CCOC(=O)CN1CCC(CCNc2ncc3ncnc(Nc4ccc(F)c(Cl)c4)c3n2)CC1 [2(13), 4-[(3-chloro-4-fluorophenyl)amino]-6-(2-{1-[(ethoxycarbonyl)methyl]piperidin-4-yl}ethylamino)pyrimido[5,4-d]pyrimidine]	1030	128 to 130 °C
CCOC(=O)C1CCN(CCNc2ncc3ncnc(Nc4ccc(F)c(Cl)c4)c3n2)CC1 [2(14), 4-[(3-chloro-4-fluorophenyl)amino]-6-{2-[4-(ethoxycarbonyl)piperidin-1-yl]ethylamino}pyrimido[5,4-d]pyrimidine]	1150	137 to 139 °C
COC(=O)CCN(C)C1CCN(c2ncc3ncnc(Nc4ccc(F)c(Cl)c4)c3n2)CC1 [2(15), 4-[(3-chloro-4-fluorophenyl)amino]-6-(4-{N-[2-(methoxycarbonyl)ethyl]-N-methylamino}piperidin-1-yl)pyrimido[5,4-d]pyrimidine]	1760	–
COC(=O)CN(C)CC1CCN(c2ncc3ncnc(Nc4ccc(F)c(Cl)c4)c3n2)CC1 [2(19), 4-[(3-chloro-4-fluorophenyl)amino]-6-[4-({N-[(methoxycarbonyl)methyl]-N-methylamino}methyl)piperidin-1-yl]pyrimido[5,4-d]pyrimidine]	129	–
COC(=O)CN1CCC(Nc2ncc3ncnc(Nc4cccc(C)c4)c3n2)CC1 [2(24), 4-[(3-methylphenyl)amino]-6-({1-[(methoxycarbonyl)methyl]piperidin-4-yl}amino)pyrimido[5,4-d]pyrimidine]	73	164 °C
CCOC(=O)CN(CC(=O)OCC)[C@H]1CC[C@H](Nc2ncc3ncnc(Nc4ccc(F)c(Cl)c4)c3n2)CC1 [3(4), 4-[(3-chloro-4-fluorophenyl)amino]-6-[(trans-4-{N,N-bis-[(ethoxycarbonyl)methyl]amino}cyclohex-1-yl)amino]pyrimido[5,4-d]pyrimidine]	58	–
CCOP(=O)(CN1CCC(Nc2ncc3ncnc(Nc4cccc(Br)c4)c3n2)CC1)OCC [4(1), 4-[(3-bromophenyl)amino]-6-({1-[(diethoxyphosphoryl)methyl]piperidin-4-yl}amino)pyrimido[5,4-d]pyrimidine]	40	–
CCOP(C)(=O)CN1CCC(Nc2ncc3ncnc(Nc4cccc(Br)c4)c3n2)CC1 (stereo not shown) [4(2), 4-[(3-bromophenyl)amino]-6-[(1-{[(ethoxy)(methyl)phosphoryl]methyl}piperidin-4-yl)amino]pyrimido [5,4-d]pyrimidine]	40	–

Continued by falling IC50 [1], values first:

IC50 [1] [nM]	melting point	SMILES
40	–	COC(=O)C(C(=O)OC)N1CCC(Nc2ncc3ncnc(Nc4ccc(F)c(Cl)c4)c3n2)CC1 [3(18)]
30	144 °C	COC(=O)CN1CCC(Nc2ncc3ncnc(Nc4cccc(Br)c4)c3n2)CC1 [2(17)]
25	129 °C	COC(=O)CN1CCC(Nc2ncc3ncnc(Nc4cccc(Cl)c4)c3n2)CC1 [2(23), 4-[(3-chlorophenyl)amino]-6-({1-[(methoxycarbonyl)methyl]piperidin-4-yl}amino)pyrimido[5,4-d]pyrimidine]
20	–	COC(=O)CN(CC(=O)OC)[C@H]1CC[C@H](Nc2ncc3ncnc(Nc4ccc(F)c(Cl)c4)c3n2)CC1 [3(5), 4-[(3-chloro-4-fluorophenyl)amino]-6-[(trans-4-{N,N-bis-[(methoxycarbonyl)methyl]amino}cyclohex-1-yl)amino]pyrimido [5,4-d]pyrimidine]
20	–	COC(=O)C(C(=O)OC)N1CCC(Nc2ncc3ncnc(Nc4cccc(Br)c4)c3n2)CC1 [3(16)]
17	–	COC(=O)CN1CCCC(Nc2ncc3ncnc(Nc4cccc(Br)c4)c3n2)C1 (stereo not shown) [3(17), 4-[(3-bromophenyl)amino]-6-({1-[(methoxycarbonyl)methyl]piperidin-3-yl}amino)pyrimido[5,4-d]pyrimidine]
16	–	COC(=O)CN[C@H]1CC[C@H](Nc2ncc3ncnc(Nc4ccc(F)c(Cl)c4)c3n2)CC1 [3(10), 4-[(3-chloro-4-fluorophenyl)amino]-6-[(trans-4-{[(methoxycarbonyl)methyl]amino}cyclohex-1-yl)amino]pyrimido[5,4-d]pyrimidine]
15	162 to 164 °C	COC(=O)CN1CCC(Nc2ncc3ncnc(Nc4ccc(F)c(Cl)c4)c3n2)CC1 [2(1), 4-[(3-chloro-4-fluorophenyl)amino]-6-({1-[(methoxycarbonyl)methyl]piperidin-4-yl}amino)pyrimido [5,4-d]pyrimidine]
